Here are results for seven compounds from patent US8217005B2 (priority 2006, dated 2012).

Usually IC50 stands for the concentration that inhibits the measured activity by half.

The conditions of data set [1]: male, Sprague-Dawley, rat, in vivo, 0.5 mg/kg.
Another data set concerns the target T1, human μ-opioid receptor (Homo sapiens, UniProt P35372).
T1 construct: expressed in transfected cells; host or cells: HEK-293 cells
As to the kind of experiment: biochemical. It is filed as binding.

For data set [2] the following is noted: rat, in vivo.

T1 sequence (P35372 whole entry): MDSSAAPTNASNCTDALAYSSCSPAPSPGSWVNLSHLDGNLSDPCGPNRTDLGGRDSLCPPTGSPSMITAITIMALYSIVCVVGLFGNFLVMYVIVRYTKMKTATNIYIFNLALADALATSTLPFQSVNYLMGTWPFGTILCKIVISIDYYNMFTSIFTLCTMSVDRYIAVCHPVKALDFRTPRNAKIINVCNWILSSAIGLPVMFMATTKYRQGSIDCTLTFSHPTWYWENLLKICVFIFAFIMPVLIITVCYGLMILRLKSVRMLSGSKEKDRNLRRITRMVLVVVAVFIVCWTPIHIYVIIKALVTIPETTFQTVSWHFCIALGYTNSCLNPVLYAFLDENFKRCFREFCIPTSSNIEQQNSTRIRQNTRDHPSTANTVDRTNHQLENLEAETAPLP

Turning to `CN1CC[C@]23c4c5ccc(O)c4O[C@H]2C(=O)CC[C@@]3(O)[C@H]1C5` [oxymorphone], the “Cmax OM following IV dosing” value in data set [1] was 432 ng/mL.
Regarding `CN(CCNC(=O)[C@H](CCCNC(=N)N)NC(=O)c1ccc2c(c1)OCO2)C(=O)Oc1ccc2c3c1OC1C(=O)CCC4[C@@H](C2)N(C)CC[C@]314` (stereo partly drawn) [Example 6, Hydromorphone 3-(N-methyl-N-(N′-piperonyl-2-arginylamino))ethylcarbamate], the IC50 against human μ-opioid receptor was found to be 790 nM.
The same measure, in the same setting: with `CN(CCNC(=O)[C@@H](N)CCCCN)C(=O)Oc1ccc2c3c1OC1C(=O)CCC4[C@@H](C2)N(C)CC[C@]314` (stereo partly drawn) [Example 7, Hydromorphone 3-(N-methyl-N-(2-lysinylamino))ethylcarbamate] the figure was 790 nM.
As for `CN(CCN)C(=O)Oc1ccc2c3c1O[C@H]1C(=O)CC[C@@]4(O)[C@@H](C2)[N+](C)(CC2CC2)CC[C@]314.Cl.[Cl-]` (stereo partly drawn) [Example 19], the “pharmacokinetic profile (e.g. oral bioavailability), FIG. 1” value in data set [2] (20 mg/kg) is given as “improved pharmacokinetic profile”. For the same compound, in data set [2] (po), the “Cmax value compared to (R)-N-methylnaltrexone” value is “superior”.
In the case of `CN(CCNC(=O)[C@@H](N)CCCNC(=N)N)C(=O)Oc1ccc2c3c1OC1C(=O)CCC4[C@@H](C2)N(C)CC[C@]314` (stereo partly drawn) [Example 1, Hydromorphone 3-(N-methyl-N-(2-arginylamino))ethylcarbamate], on human μ-opioid receptor, the IC50 was found to be 2100 nM.
Consider `C[N@+]1(CC2CC2)CC[C@]23c4c5ccc(O)c4O[C@H]2C(=O)CC[C@@]3(O)[C@H]1C5` [N-methylnaltrexone, (R)—N-methylnaltrexone, reference compound], for which, in data set [2] (20 mg/kg), the “Cmax N-MTX following PO dosing” value turned out to be 6 ng/mL and the “pharmacokinetic profile (e.g. oral bioavailability), FIG. 1” value is “poor pharmacokinetic profile”.
On human μ-opioid receptor, `CC(=O)N[C@@H](CCCNC(=N)N)C(=O)NCCN(C)C(=O)Oc1ccc2c3c1OC1C(=O)CCC4[C@@H](C2)N(C)CC[C@]314` (stereo partly drawn) [Example 3, Hydromorphone 3-(N-methyl-N-(2-N′-acetylarginylamino))ethylcarbamate] showed an IC50 of 1300 nM.
